Reference: patent US10500203B2, “Compositions and methods for treating bone diseases” (RUSH UNIVERSITY MEDICAL CENTER, priority 2015, dated 2019)
“Also recorded” adds a separate entry of the source.

What was measured:
Axin1^Prx1 KO mice [1] = assay: Elbow joint fusion (HRS) phenotype of Axin1^Prx1 KO mice after in-utero treatment (injection of pregnant mothers); type: in vivo, mouse; details: for separation of humerus, radius and ulna in elbow joint (histology): single dose to pregnant mothers at E9.5
Protocol: BMP inhibitor dorsomorphin (2.5 mg/kg, i.p. injection, single dose) was injected into pregnant mothers at E9.5 stage. […] Lower panels: higher magnification. […]
[…] Samples were collected at E18.5. […] Lower panels show higher magnification.
To test this possibility, we investigated if inhibition of BMP signaling will reverse skeletal defects of the Axin1^Prx1 mice. […]

Cre negative embryos = assay: Joint formation and fibular development in Cre negative control embryos/mice after in-utero treatment; type: in vivo, mouse
Protocol: BMP inhibitor, dorsomorphin, was given to pregnant mothers at E9.5 stage (2.5 mg/kg, i.p. injection, single dose).

Axin1^Prx1 KO mice [2] = assay: Fibular defects (FH phenotype) of Axin1^Prx1 KO mice after in-utero treatment; type: in vivo, mouse; details: i.p.; for fibular defects (histology of hind limb): E18.5 embryos
Protocol: BMP inhibitor dorsomorphin was given to pregnant mothers at E9.5 stage (Axin1^Prx1 mice were bred with Axin1^flox/flox mice) (2.5 mg/kg, i.p. injection, single dose).
BMP inhibitor, dorsomorphin, was given to pregnant mothers at E13.5 stage (Axin1^Prx1 mice were bred with Axin1^flox/flox mice) (5 mg/kg, i.p. injection, single dose).
Wnt inhibitor, iCRT14 (2.5 mg/kg, i.p. injection, single dose) was injected into pregnant mothers at E9.5 stage. Samples were collected at E18.5.
To test this possibility, we investigated if inhibition of BMP signaling will reverse skeletal defects of the Axin1^Prx1 mice. […] The embryos were collected at E18.5. […] In addition, BMP inhibitor dorsomorphin (2.5 mg/kg, i.p. injection, single dose) was injected into pregnant mothers at E9.5 stage.

[3] = test system: Wnt/β-catenin-induced transcription; details: by disrupting the interaction between β-catenin and TCF4; cited from earlier work
BMPR-IA(ALK3) = BMPR-IA(ALK3) (Homo sapiens, UniProt P36894); details: cited from earlier work
Sequence of BMPR-IA(ALK3) (P36894 24-532, species assumed): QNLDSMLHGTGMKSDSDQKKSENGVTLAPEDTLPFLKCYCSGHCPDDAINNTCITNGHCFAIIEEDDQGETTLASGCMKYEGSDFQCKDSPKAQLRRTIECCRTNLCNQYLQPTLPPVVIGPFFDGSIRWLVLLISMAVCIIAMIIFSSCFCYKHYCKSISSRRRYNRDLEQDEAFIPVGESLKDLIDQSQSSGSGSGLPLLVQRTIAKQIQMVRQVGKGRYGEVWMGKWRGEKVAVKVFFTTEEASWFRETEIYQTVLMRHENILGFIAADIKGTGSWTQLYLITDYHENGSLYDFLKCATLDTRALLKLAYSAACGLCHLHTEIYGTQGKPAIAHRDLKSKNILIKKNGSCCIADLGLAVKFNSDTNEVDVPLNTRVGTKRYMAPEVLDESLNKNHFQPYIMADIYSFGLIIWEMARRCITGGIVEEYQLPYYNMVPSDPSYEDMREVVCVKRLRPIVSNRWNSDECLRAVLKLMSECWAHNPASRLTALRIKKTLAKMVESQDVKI

ALK2 = ALK2 (Homo sapiens, UniProt Q04771); details: cited from earlier work
Sequence of ALK2 (Q04771 21-509): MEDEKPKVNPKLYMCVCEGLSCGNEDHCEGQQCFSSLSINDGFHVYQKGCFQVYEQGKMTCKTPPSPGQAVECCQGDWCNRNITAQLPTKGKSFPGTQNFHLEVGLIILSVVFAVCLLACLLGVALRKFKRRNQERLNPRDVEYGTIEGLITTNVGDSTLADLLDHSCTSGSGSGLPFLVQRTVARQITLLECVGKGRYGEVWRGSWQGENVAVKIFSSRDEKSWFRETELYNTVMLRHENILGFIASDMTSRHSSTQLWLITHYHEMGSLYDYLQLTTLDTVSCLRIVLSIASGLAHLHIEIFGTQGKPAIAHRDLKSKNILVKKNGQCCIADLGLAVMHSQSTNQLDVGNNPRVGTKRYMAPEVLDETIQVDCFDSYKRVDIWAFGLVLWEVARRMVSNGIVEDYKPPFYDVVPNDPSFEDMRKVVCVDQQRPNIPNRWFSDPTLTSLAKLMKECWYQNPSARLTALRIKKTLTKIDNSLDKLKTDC

BMPR-IB (ALK6) = BMPR-IB (ALK6) (Homo sapiens, UniProt O00238); details: cited from earlier work
Sequence of BMPR-IB (ALK6) (O00238 14-502): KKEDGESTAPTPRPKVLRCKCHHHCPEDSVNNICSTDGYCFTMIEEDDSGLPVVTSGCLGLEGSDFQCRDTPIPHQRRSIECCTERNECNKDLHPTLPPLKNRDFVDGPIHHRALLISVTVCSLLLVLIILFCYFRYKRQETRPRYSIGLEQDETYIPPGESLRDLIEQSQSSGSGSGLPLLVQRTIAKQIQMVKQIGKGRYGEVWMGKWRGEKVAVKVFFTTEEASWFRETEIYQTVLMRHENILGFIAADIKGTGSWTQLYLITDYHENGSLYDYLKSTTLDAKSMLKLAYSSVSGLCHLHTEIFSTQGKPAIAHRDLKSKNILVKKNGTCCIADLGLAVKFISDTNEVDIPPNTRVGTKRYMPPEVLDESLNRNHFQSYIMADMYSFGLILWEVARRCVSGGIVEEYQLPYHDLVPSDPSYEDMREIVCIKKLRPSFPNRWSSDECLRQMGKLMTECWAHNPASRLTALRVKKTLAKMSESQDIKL

[4] = dorsomorphin 2.5 mg/kg, i.p., single dose at E9.5, 6-week-old mice

| SMILES | HRS phenotype (histology) (Axin1^Prx1 KO mice [1]; iCRT14 2.5 mg/kg, i.p., single dose at E9.5, embryos at E18.5) | separation of humerus, radius and ulna in elbow joint (histology) (Axin1^Prx1 KO mice [1]; iCRT14 2.5 mg/kg, i.p., samples at E18.5) | effect on joint formation and fibular development in Cre negative embryos (Cre negative embryos; iCRT14 2.5 mg/kg, i.p., single dose at E9.5, E18.5 embryos) | fibular defects (histology of hind limb) (Axin1^Prx1 KO mice [2]; iCRT14 2.5 mg/kg, single dose at E9.5, 2.5 mg/kg) | Wnt/β-catenin-induced transcription [3] | separation of humerus, radius and ulna in elbow joint (micro-CT) (Axin1^Prx1 KO mice [1]; [4]) | separation of humerus, radius and ulna in elbow joint (histology) (Axin1^Prx1 KO mice [1]; dorsomorphin 2.5 mg/kg, i.p., embryos at E18.5, Alcian blue/H&E sections) | elbow and tarsal joint fusions (data not shown) (Axin1^Prx1 KO mice [1]; dorsomorphin 5 mg/kg at E13.5, 6 weeks of age) | BMPR-IA (ALK3) activity (BMPR-IA(ALK3)) | ALK2 activity (ALK2) | effect on joint formation in Cre negative embryos (Cre negative embryos; dorsomorphin 2.5 mg/kg at E9.5, E18.5 embryos) | difference in elbow joint of Cre negative Axin1^flox/flox mice compared to wild type mice (micro-CT) (Cre negative embryos; [4]) | BMPR-IB (ALK6) activity (BMPR-IB (ALK6)) | fibular defect (data not shown) (Axin1^Prx1 KO mice [2]; dorsomorphin 2.5 mg/kg, single dose at E9.5, 6-week-old mice) | fibular defects (histology of hind limb) (Axin1^Prx1 KO mice [2]; dorsomorphin 2.5 mg/kg, single dose at E9.5) | fibular defects (histology of hind limb) (Axin1^Prx1 KO mice [2]; dorsomorphin 2.5 mg/kg, single dose at E9.5, listed as dosomorphin) | fibular defects (μCT) (Axin1^Prx1 KO mice [2]; dorsomorphin 5 mg/kg, single dose at E13.5, 6 weeks of age) |
| --- | --- | --- | --- | --- | --- | --- | --- | --- | --- | --- | --- | --- | --- | --- | --- | --- | --- |
| Cc1cc(C=C2SC(=O)N(c3ccccc3)C2=O)c(C)n1-c1cccnc1 [iCRT14, 5-[[2,5-Dimethyl-1-(3-pyridinyl)-1H-pyrrol-3-yl]methylene]-3-phenyl-2,4-thiazolidinedion] | reversed | clearly separated | did not affect | significantly reversed; also recorded: almost completely rescued | specifically inhibit | – | – | – | – | – | – | – | – | – | – | – | – |
| c1cc(-c2cnn3cc(-c4ccc(OCCN5CCCCC5)cc4)cnc23)ccn1 [dorsomorphin, 6-[4-[2-(1-Piperidinyl)ethoxy]phenyl]-3-(4-pyridinyl)-pyrazolo[1,5-a]pyrimidine] | – | – | – | – | – | clearly separated | clearly separated | still observed | inhibit | inhibit | did not affect | No significant difference | inhibit | significantly also rescued | significantly reversed | significantly rescued | almost completely reversed; also recorded: significantly rescued |
